The values that follow come from US6638919B2, “Antiviral purine derivatives” (University College Cardiff Consultants Limited, priority 2001, dated 2003).

pEC50: −log10 of the molar value. Where a name gives a salt, the structure may show the parent alone. Read-outs that look alike come from different tables or passages of the source.

Data set [1] concerns HIV-1. Briefly: Inhibition of HIV-1 giant cell formation in CEM cells. The note with it: for EC50: 96 h, CEM cells, giant cell formation after 4 days, Tables I and II, read-out: EC50/μM HIV-1 CEM; for pEC50: read-out: HIV1 CBM. It counts as cell-based. The method, then:
(§1) Then 100 μL of the infected cell suspension was transferred to microtiter plate wells and mixed with 100 μL of the appropriate dilutions of the test compounds.
HIV 1 CEM: EC50 in μM for inhibition of HIV1 in CEM cells

Data set [2] deals with HIV-2. Briefly: Inhibition of HIV-2 giant cell formation in CEM cells. The following applies: for EC50: 96 h, CEM cells, giant cell formation after 4 days, Tables I and II, read-out: EC50/μM HIV-2 CEM; for pEC50: read-out: HIV2 CBM. It counts as cell-based. The method, then: as §1
HIV1 CEM: EC50 in μM for inhibition of […] in CEM cells.
HIV2 CEM: EC50 in μM for inhibition of HIV-2 in CEM cells

Data set [3] can be described thus: Toxicity to mock-infected CEM cells (CC50). The format is cell-based. The note with it: human. As for the experimental part: as §1
(§2) CC50 CEM: CC50 in μM for toxicity to CEM cells.
(§3) CC50 CEM: CC50 μM for toxicity to CEM cells

Data set [4] can be described thus: Acid stability, dilute HCl pH1, simulated stomach conditions. The following applies: 0.1N HCl pH1, 25° C. It counts as physicochemical. The method, then: Compounds were tested for their stability towards acid-mediated hydrolytic decomposition employing a test designed to simulate stomach conditions. Each compound was incubated in dilute HCl of pH1 for 24 hours at 25° C. 0.3 mg of compound were added to 1 mL of 0.1N HCl at 25° C. HPLC was run immediately for time=0 and at intervals up to approximately 24 hours.

Data set [5] in a line: Biological stability in heparinised human plasma. The note with it: heparinised human plasma, 37° C.
Procedure: Each compound was incubated in normal heparinised human plasma at 37° C. for 4 hours. […] Drug concentrations were then determined by LC/MS/MS analysis using standard methods.
Data set [6] deals with HIV-2. Briefly: Inhibition of HIV-2 in CEM.TK- cells. It counts as cell-based. The following applies: read-out: HIV2 CEM. TK. The method, then:
Cells were infected with HIV-1 as previously described [Balzarini et al. AIDS (1991), 5, 21-28]. Briefly, 5×10^5 cells per milliliter were infected with HIV-1 or HV-2 at 100 CClD50 (50% cell culture infective dose) per milliliter of cell suspension. Then 100 μL of the infected cell suspension was transferred to microtiter plate wells and mixed with 100 μL of the appropriate dilutions of the test compounds. After 4 days giant cell formation was recorded microscopically in the HIV-infected cell cultures [CEM].
HIV2CEM.TK- EC50 μM for inhibition of IV-2 in CEM=cells

The test system of data set [7] is MSV. Nature of the data set: Inhibition of MSV. The format is cell-based. The note with it: read-out: EC50 MSV. The method, then:
EC50 MSV: EC50 μM for inhibition of MSV

In data set [8] the test system is MSV. Briefly: Minimum cytotoxic concentration in MSV assay. Set-up: unit not given here. The following applies: Table III. It counts as cell-based. From the text:
MCC MSV: minimum cytotoxic concentration in MSV essay.

Data set [9] relates to CEM cells. Briefly: Toxicity to mock-infected CEM cells (CC50). The format is cell-based. The note with it: Table III; toxicity to CEM cells; read-out: CC50 CEN. As for the experimental part:
as §1, §2, §3

The mark [10] stands for this setting: Human immunodeficiency virus 1, CCRF-CEM.
[11] abbreviates: Human immunodeficiency virus 2, CCRF-CEM.
Where [12] appears, read: mock-infected CEM cells, Tables I and II, read-out: CC50/μM CEM.
[13] abbreviates: Human immunodeficiency virus 1, CCRF-CEM, Table III, EC50 for inhibition of HIV1 in CEM cells.
The mark [14] stands for this setting: Human immunodeficiency virus 2, CCRF-CEM, Table III, EC50 for inhibition of HIV-2 in CEM cells.
Where [15] appears, read: Table III, toxicity to CEM cells, read-out: CC50 CEN.
Setting [16] is: Table III, EC50 for inhibition of HIV-2 in CEM cells.
[17] abbreviates: Table III, EC50 for inhibition of HIV-2 in CEM.TK- cells.
The mark [18] stands for this setting: Table III, EC50 for inhibition of HIV1 in CEM cells.

Consider `Nc1nc2c(ncn2[C@H]2C=C[C@@H](CO)C2)c(=O)[nH]1` [(1R, 4S)-9-{4-(hydroxymethyl)-2-cyclopenten-1-yl]guanine, reference compound], for which the figures for the EC50 in [1] (setting [10]) and in data set [2] (setting [11]) were 2 µM and 2.3 µM, respectively. Also, the CC50 at 4 days in [3] (setting [12]) is 157 µM.

Consider `COC(=O)[C@H](C)NP(=O)(OC[C@@H]1C=C[C@H](n2cnc3c(N)ncnc32)O1)Oc1ccccc1` (some centres unmarked) [Compound 1001, 2′, 3′-dideoxy-2′, 3′-didehydroadenosine-5′-(phenylmethoxyalaninyl) phosphate], for which the “time to disappearance in acid” value in [4] is listed as less than 1 min. In addition, the “Compound left (%)” value in data set [4] (time 0 hr) and in data set [4] (time 17 hr) was 0% each time. The “Half-life” value in data set [5] was found to be 4.6 h. In addition, the “% Remaining at 4 hours” value in data set [5] (4 hours) is recorded as 52%.

Regarding `Nc1nc(NC2CC2)c2ncn([C@H]3C=C[C@@H](CO)C3)c2n1` [Abacavir, (1S,4R)-4-[2-anino-6-(cyclopropylamino)-9H-purin-9-yl]-2-cyclopentene-1-methanol, reference compound], the EC50 in data set [1] (setting [10]) amounted to 1.9 µM; in data set [2] (setting [11]) it was 3 µM. Also, the CC50 at 4 days in data set [3] (setting [12]) is 78 µM.

Consider `COC(=O)C(NP(=O)(OC[C@@H]1C=CC(n2cnc3c(NC4CC4)nc(N)nc32)C1)Oc1ccccc1)C(C)C` (some centres unmarked) [Compound 1666], for which the pEC50 in [1] (setting [13]) was 5.46; in [2] (setting [14]) it was 5.40; in [6] (Human immunodeficiency virus 2, CEM-TK(-)), 5.46; in data set [7] (Table III, inhibition of MSV), 4.93. The CC50 in [3] (setting [15]) stood at 54.1 µM. Further, the MCCMSV in [8] is reported as greater than 20.

In the case of `COC(=O)[C@@H]1CCCN1P(=O)(OC[C@@H]1C=CC(n2cnc3c(NC4CC4)nc(N)nc32)C1)Oc1ccccc1` (some centres unmarked) [Compound 1719], the pEC50 is 5.40 in data set [1] (setting [10]), 5.26 in data set [2] (setting [11]) and 4.94 in [7]. For the same molecule, the CC50 at 4 days in [3] (setting [15]) worked out at 19.4 µM. The MCCMSV result in data set [8] is on record as “≧100”.

For the molecule `C[C@@H](NP(=O)(O)OC[C@@H]1C=C[C@H](n2cnc3c(NC4CC4)nc(N)nc32)C1)C(=O)O` [Compound 1595, (1S,4R)-4-(2-amino-6-cyclopropylamino-9H-purin-9-yl)-2-cyclopentene-1-methanol O-(D-alaninyl)-phosphate diammonium salt], the figures for the pEC50 in [2] (setting [16]) and in data set [6] (setting [17]) were 5.92 and 6.10, respectively. Moreover, the CC50 in [9] was found to be 213 µM.

On to `CC(C)CCCOC(=O)[C@H](C)NP(=O)(OC[C@@H]1C=CC(n2cnc3c(NC4CC4)nc(N)nc32)C1)Oc1ccccc1` (stereo partly drawn) [Compound 1721, (1S,4R)-4-(2-amino-6-cyclopropylamino-9H-purin-9-y))-2-cyclopentene-1-methanol O-[phenyl (4-methyl-1-pentyloxy-L-alaninyl)phosphate], for which the pEC50 in [1] (setting [13]) is 7.30; in data set [2] (setting [14]), 6.85; in data set [7] (Table III, inhibition of MSV), 5.66. The CC50 in data set [3] (setting [15]) came out at 12.5 µM. In addition, the MCCMSV in data set [8] is greater than 4.

For `COC(=O)[C@H](CC1CCCCC1)NP(=O)(OC[C@@H]1C=C[C@H](n2cnc3c(NC4CC4)nc(N)nc32)C1)Oc1ccccc1` (stereo partly drawn) [Compound 1709, (1 S,4R)-4-(2-amino-6-cyclopropylamino-9H-purin-9-yl)-2-cyclopentene-1-methanol O-Phenyl-(methoxy-3-cyclohexane-L-alaninyl)-phosphate], the pEC50 was 5.92 in [1] (setting [18]); 5.70 in [2] (setting [16]); 5.76 in data set [7] (Table III, inhibition of MSV). For the same molecule, the CC50 in data set [9] is 16 µM. The MCCMSV in data set [8] is recorded as greater than 4.

In the case of “(1S,4R)-4-(2-amino6cyclopropyl-2 -amino-9H-purin-9-yl)-2-cyclopentene-1-methanol O-((P-(2 2-dimethoxy-L-propionic acid methyl ester)-phenyl)methoxyalaninyl phosphate) [Compound 1671]”, the pEC50 was 7.00 in [1] (setting [18]); 6.92 in [2] (setting [16]); 5.04 in [7] (Table III, inhibition of MSV). Further, the CC50 in [9] amounted to 12.1 µM. The molecule also registered an MCCMSV in data set [8] greater than 20.

Consider `COC(=O)[C@H](CCSC)NP(=O)(OC[C@@H]1C=C[C@H](n2cnc3c(NC4CC4)nc(N)nc32)C1)Oc1ccccc1` (stereo partly drawn) [Compound 1715, (1S,4R)-4-(2-amino-6-cyclopropylamino-9H-purin-9-yl)-2-cyclopentene-1-methanol O-(phenylmethoxy-L-methionyl phosphate)], for which the pEC50 in [1] (setting [18]) was 5.94; in [2] (setting [16]), 5.56; in data set [7] (Table III, inhibition of MSV) it was 4.99. Besides, in data set [9], the CC50 worked out at 48.9 µM. In addition, the MCCMSV in data set [8] was greater than 20.

Regarding `C[C@H](NP(=O)(OC[C@@H]1C=C[C@H](n2cnc3c(NC4CC4)nc(N)nc32)C1)Oc1ccccc1)C(=O)OCC(C)(C)C` (stereo partly drawn) [Compound 1673, (1S ,4R)-442-amino6-cyclopropylamino-9H-purin-9-y)-2-cyclopentene-1-methanol O-(phenyl (2,2-dimethylpropyl)oxyalaninyl phosphate)], the pEC50 in [1] (setting [18]) was 6.82; in [2] (setting [16]) it was 6.74; in data set [7] (Table III, inhibition of MSV), 5.53. For the same molecule, the CC50 in [9] came out at 8.07 µM. In [8], this molecule registered an MCCMSV greater than 4.

For `COC(=O)[C@H](C)NP(=O)(OC[C@@H]1C=C[C@H](n2cnc3c(NC4CC4)nc(N)nc32)C1)Oc1ccc(Cl)cc1` (stereo partly drawn) [Compound 1620, (1S,4R)-4-(2-amino-6-cyclopropylamino-9H-purin-^9-yl)-2-cyclopentene-1-methanol O-[4-chlorophenyl-(methoxy-L-alaninyl)]-phosphate], the pEC50 in data set [1] (setting [18]) is 7.85; in [2] (setting [16]) it was 7.20; in [6] (setting [17]), 7.89. Further, the CC50 in data set [9] is 4.7 µM.

In the case of `COC(=O)C(CC(C)C)NP(=O)(OC[C@@H]1C=CC(n2cnc3c(NC4CC4)nc(N)nc32)C1)Oc1ccccc1` (some centres unmarked) [Compound 1718], the pEC50 in data set [1] (setting [13]) was 6.07; in data set [2] (setting [14]), 5.83; in [7] (Table III, inhibition of MSV), 5.05. For the same molecule, the CC50 in [3] (setting [15]) came to 22 µM. The molecule further had an MCCMSV in data set [8] greater than 20.

Consider `CC(C)OC(=O)[C@H](C)NP(=O)(OC[C@@H]1C=C[C@H](n2cnc3c(NC4CC4)nc(N)nc32)C1)Oc1ccccc1` (stereo partly drawn) [Compound 1661, (1S,4R)-4-(2-amino-6-cyclopropylamino-9H-purin-9-yl)-2-cyclopentene-1-methanol O-Phenyl-(i-propoxy-L-alaninyl)-phosphate], for which the pEC50 in data set [1] (setting [18]) was 6.30; in [2] (setting [16]) it was 6.07; in data set [7] (Table III, inhibition of MSV), 5.56. The CC50 in [9] stood at 9.18 µM. Further, in [8], the MCCMSV result is given as “≧20”.

In the case of `C[C@H](NP(=O)(OC[C@@H]1C=CC(n2cnc3c(NC4CC4)nc(N)nc32)C1)Oc1ccccc1)C(=O)OCC1CCCC1` (some centres unmarked) [Compound 1722], the pEC50 in data set [1] (setting [13]) was 6.89; in [2] (setting [14]) it was 6.32. Moreover, in [3] (setting [15]), the CC50 is 15.2 µM.

As for `C[C@H](NP(=O)(OC[C@@H]1C=C[C@H](n2cnc3c(NC4CC4)nc(N)nc32)C1)Oc1ccccc1)C(=O)OC(C)(C)C` (stereo partly drawn) [Compound 1645, (1S,4R)-4-(2-amino-6-cyclopropylamino-9H-purin-9-yl)-2-cyclopentene-1-methanol O-(phenyl-tertbutyloxy-L-alaninyl)-phosphate], the pEC50 in data set [1] (setting [18]) is 5.43; in [2] (setting [16]), 5.22; in data set [7] (Table III, inhibition of MSV), 4.93. In addition, the CC50 in [9] came out at 33 µM. For the same molecule, the MCCMSV in data set [8] is recorded as greater than 20.

For the molecule `C[C@H](NP(=O)(OC[C@@H]1C=C[C@H](n2cnc3c(NC4CC4)nc(N)nc32)C1)Oc1ccccc1)C(=O)OC1CCCCC1` (stereo partly drawn) [Compound 1707, (1S,4R)-4-(2-amino-6-cyclopropylamino-9H-purin-9-yl)-2-cyclopeniene-1-methanol O-Phenyl-(c-hexyloxy-L-alaninyl)-phosphate], the pEC50 is 6.48 in [1] (setting [18]); 6.60 in data set [2] (setting [16]); 5.55 in data set [7] (Table III, inhibition of MSV). Further, the CC50 in data set [9] is 10.2 µM. The MCCMSV in data set [8] was greater than 4.
